# Patent US8933019B2, “Antiviral cell-penetrating peptides” (priority 2008, dated 2015)
# Bridge positions count the residues as written; N and C are the ends. Square brackets hold non-standard residues; d marks the D form. Peptide text beside a SMILES is read from it. S5 = C=CCCC[C@](C)(N)C(=O)O
# How the values were obtained:
# HIV-1 89.6 = assay type: cell-based; details: laboratory strain, subtype B, PBMC, coreceptor R5X4; read-out: IC50 (μM ± SD), HIV-1 89.6
# Protocol: (§1) The inhibitory activity of peptides on infection by primary HIV-1 isolates was determined as previously described (Jiang et al., Antimicrob. Agents Chemother. 48:4349-4359, 2004). Peripheral blood mononuclear cells (PBMCs) were isolated from the blood of healthy donors at the New York Blood Center by standard density gradient centrifugation using Histopaque-1077 (Sigma-Aldrich). The cells were cultured at 37° C. for 2 hr. Nonadherent cells were collected and resuspended at 5×10^6 cells/ml RPMI-1640 medium containing 10% FBS, 5 μg/ml PHA, and 100 U/ml IL-2 (Sigma-Aldrich), followed by incubation at 37° C. for 3 days. The PHA-stimulated cells (5×10^4 cells/well) were infected with primary HIV-1 isolates at 500 TCID50 (0.01 MOI) in the absence or presence of peptide inhibitor at graded concentrations. Culture media were changed every 3 days and replaced with fresh media containing freshly prepared inhibitor. The supernatants were collected 7 days post-infection and tested for p24 antigen by ELISA (FIG. 6). The percent inhibition of p24 production, IC50 and IC90 values were calculated by the GraphPad Prism software (GraphPad Software Inc.).
# (§2) In addition, NYAD-201, NYAD-202 and NYAD-203 were also tested using several laboratory-adapted and primary isolates in MT-2 cells and PBMC (peripheral blood mononuclear cells), respectively. The inhibition of p24 production in MT-2 cells by NYAD-201 and its analogs were measured over a range of concentrations and the concentration required to inhibit 50% (IC50) of the p24 production was calculated. […] NYAD-201 and its analogs inhibited the laboratory strains with low μM potency (IC50˜2-8 μM), and both R5- and X4-tropic viruses were inhibited with similar potency.
# HIV-1 BaL = assay type: cell-based; details: laboratory strain, subtype B, PBMC, coreceptor R5; read-out: IC50 (μM ± SD), HIV-1 BaL
# Protocol: as §1, §2
# HIV-1 92US657 = test: Inhibition of primary HIV-1 isolate, p24 ELISA, PBMC; assay type: cell-based; details: subtype B, coreceptor R5, read-out: IC50 (μM ± SD), HIV-1 92US657
# Protocol: as §1
# (§3) NYAD-201, NYAD-202 and NYAD-203 were also tested against a set of primary HIV-1 isolates in PBMC representing mostly group M and one from group O with diverse coreceptor usage. […] The inhibitory activities of the peptides against this diverse range of primary isolates were similar, indicating its effectiveness against a wide range of HIV-1 isolates.
# HIV-1 93BR020 = test: as above; assay type: cell-based; details: subtype F, coreceptor R5X4, read-out: IC50 (μM ± SD), HIV-1 93BR020
# Protocol: as §1, §3
# HIV-1 93IN101 = test: as above; assay type: cell-based; details: subtype C, coreceptor R5, read-out: IC50 (μM ± SD), HIV-1 93IN101
# Protocol: as §1, §3
# HIV-1 98CN009 = test: as above; assay type: cell-based; details: subtype C, coreceptor R5, read-out: IC50 (μM ± SD), HIV-1 98CN009
# Protocol: as §1, §3
# HIV-1 BCF02 = test: as above; assay type: cell-based; details: (Group 0), coreceptor R5, read-out: IC50 (μM ± SD), HIV-1 BCF02
# Protocol: as §1, §3
# HIV-1 CMU02 = test: as above; assay type: cell-based; details: subtype EA, coreceptor X4, read-out: IC50 (μM ± SD), HIV-1 CMU02
# Protocol: as §1, §3
# [1] = Cytotoxicity, XTT method, PBMC; assay type: cell-based; details: human
# Protocol: Cytotoxicity of peptides in MT-2 cells and PBMC was measured by the XTT [(sodium 3′-(1-(phenylamino)-carbonyl)-3,4-tetrazolium-bis(4-methoxy-6-nitro) bezenesulfonic acid hydrate)] method as previously described (Jiang et al., 2004). Briefly, for MT-2 cells, 100 μl of a peptide at graded concentrations was added to an equal volume of cells (1×10^5 cells/ml) in 96-well plates followed by incubation at 37° C. for 4 days, which ran parallel to the neutralization assay in MT-2 (except medium was added instead of virus). In the case of PBMC, 5×10^5 cells/ml were used and the cytotoxicity was measured after 7 days. After addition of XTT (PolySciences, Inc.), the soluble intracellular formazan was quantitated colorimetrically at 450 nm 4 hr later with a reference at 620 nm. The percent of cytotoxicity and the CC50 values were calculated as above (Table 2 and Table 3).
# HIV-1 IIIB = test: Release and infectivity of HIV-1 virus released from infected MT-2 cells after treatment; assay type: cell-based; details: lower dose 6.25 μg/ml, normalized for p24, TCID50
# Protocol: On the fourth day post-infection, the supernatants were collected and filtered with a 0.45 μm PVDF membrane. One aliquot of the supernatants from each sample was mixed 1:1 with a solution of 5% Triton X-100 for p24 quantification, and stored at 4° C., another aliquot was immediately frozen at −80° C. and used to compare the infectivity of the viral particles released by NYAD-201 and NYAD-202 treated cells to the viral particles released by untreated cells. The protein p24 was first quantified by sandwich-ELISA, then the viral samples were normalized for the p24 content and titered to calculate the TCID50. MT-2 cells were infected with a two fold dilutions of virus from NYAD-201 and NYAD-202 treated and untreated cells. […] On the fourth day post infection supernatants were collected for p24 quantification by sandwich-ELISA and the TCID50 was calculated by the Spearman-Karber statistical method. […]
# For these reasons, not only the quantity but also the quality of the viral particles released in the supernatant was evaluated. First, the p24/viral particles released in the supernatant following NYAD-201 and NYAD-202 treatment were quantified, then starting with the same amount of p24 per sample, the viruses released in the supernatant were titered. The TCID50 was calculated and expressed as percentage infectivity with respect to the untreated positive control. […]
# [2] = Solubility, observation in the Jurkat cytotoxicity test; assay type: physicochemical
# Protocol: Cytotoxicity was also evaluated in Jurkat cells using a Promega LDH leakage detection kit. Jurkat cells were plated at 10^4 cells/well in a volume of 200 μl. The test was performed after 30 min, 2 hr and 4 hr of exposure to the NYAD-201, NYAD-202 and NYAD-203 compounds.
smiles,measurement,setting,value
"CSCC[C@@H]1NC(=O)[C@H](Cc2c[nH]c3ccccc23)NC(=O)[C@@](C)(NC(=O)[C@H](CCCCN)NC(=O)[C@@H](NC(=O)[C@H](CCC(=O)O)NC(=O)[C@H](CCC(N)=O)NC(=O)[C@H](C)N)C(C)C)CCCC=CCCC[C@@](C)(C(=O)N[C@H](C(=O)N[C@@H](CC(C)C)C(=O)N[C@@H](CC(C)C)C(=O)N[C@H](C(=O)N[C@@H](C)C(N)=O)C(C)C)[C@@H](C)O)NC(=O)[C@H]([C@@H](C)O)NC1=O [NYAD-201, AQEVKXWMTXTLLVA] (H-AQEVK[S5]WMT[S5]TLLVA-NH2; staple 6-10)",IC50,HIV-1 89.6,5.21 ± 0.87 µM
same,IC50,HIV-1 BaL,4.73 ± 1.92 µM
same,IC50,HIV-1 92US657,6.72 ± 0.98 µM
same,IC50,HIV-1 93BR020,2.78 ± 0.57 µM
same,IC50,HIV-1 93IN101,1.58 ± 0.57 µM
same,IC50,HIV-1 98CN009,5.31 ± 0.83 µM
same,IC50,HIV-1 BCF02,15.8 ± 3.43 µM
same,IC50,HIV-1 CMU02,7.36 ± 0.69 µM
same,CC50 at 7 days,[1],> 115 µM
same,Percentage infectivity of virus produced by treated cells with respect to untreated control,HIV-1 IIIB,50%
same,Solubility,[2],not very soluble
